What all share (type): functional, organism-based
What all share (conditions): Aorta

Assay [1] is filed under the species Rattus norvegicus. Nature of the assay: Vasorelaxation effect against norepinephrine-induced contraction of rat thoracic aortic ring with endothelium at 100 uM.
Assay [2] is filed under the species Rattus norvegicus. Description: Vasorelaxation effect against norepinephrine-induced contraction of rat thoracic aortic ring without endothelium at 100 uM.
For assay [3], the species on record is Rattus norvegicus. Description: Vasocontractile effect on norepinephrine-induced contraction of rat thoracic aortic ring without endothelium at 100 uM.
Assay [4] is filed under the species Rattus norvegicus. Nature of the assay: Vasocontractile effect on norepinephrine-induced contraction of rat thoracic aortic ring with endothelium at 100 uM.

The source made the active and inactive calls. The rule behind the calls is not given here. Residues, ends and D or L forms follow the SMILES beside them.

For `CC(C)C[C@@H]1NC(=O)CNC(=O)[C@@H]2CCCN2C(=O)[C@H](Cc2ccccc2)NC(=O)[C@H](C)NC(=O)[C@H](Cc2ccccc2)NC(=O)[C@H](Cc2c[nH]cn2)NC1=O` (cyclo(AFPGLHF)), the outcome in the assay filed under Rattus norvegicus [1] and in the assay listed under Rattus norvegicus [2] was Active.

`CC(C)C[C@@H]1NC(=O)CNC(=O)[C@@H]2CCCN2C(=O)[C@H](Cc2ccccc2)NC(=O)[C@H](C)NC(=O)[C@H](Cc2ccccc2)NC(=O)[C@H](CO)NC1=O` (cyclo(AFPGLSF)): the outcome in the assay listed under Rattus norvegicus [1] and in the assay listed under Rattus norvegicus [2] was Active.

Turning to `CC(C)[C@@H]1NC(=O)CNC(=O)[C@H](C)NC(=O)[C@H](Cc2c[nH]c3ccccc23)NC(=O)[C@H](C)NC1=O` (cyclo(AGVAW)), the result in the assay listed under Rattus norvegicus [3], in the assay listed under Rattus norvegicus [1] and in the assay listed under Rattus norvegicus [4] was Active.

As to `CC(C)[C@@H]1NC(=O)CNC(=O)[C@H](C)NC(=O)[C@H](Cc2ccc(O)cc2)NC(=O)[C@H](CCCCN)NC1=O` (cyclo(AGVKY)), the result in the assay filed under Rattus norvegicus [1] and in the assay listed under Rattus norvegicus [2] was Active.

For the molecule `CC(C)[C@@H]1NC(=O)[C@@H]2CCCN2C(=O)[C@H](C(C)C)NC(=O)CNC(=O)[C@H](C)NC(=O)[C@H](Cc2c[nH]c3ccccc23)NC1=O` (cyclo(AGVPVW)), the outcome in the assay filed under Rattus norvegicus [1] and in the assay listed under Rattus norvegicus [2] was Active.

With `C[C@@H]1NC(=O)[C@H](CO)NC(=O)[C@H](Cc2ccccc2)NC(=O)[C@@H]2CCCN2C(=O)[C@H](CCCCN)NC(=O)[C@H](CO)NC(=O)[C@H](CO)NC(=O)[C@H](Cc2ccc(O)cc2)NC(=O)[C@H](CO)NC1=O` (cyclo(ASYSSKPFS)), the result in the assay filed under Rattus norvegicus [1] and in the assay filed under Rattus norvegicus [2] was Active.

Take `N=C(N)NCCC[C@@H]1NC(=O)[C@H](Cc2ccc(O)cc2)NC(=O)CNC(=O)[C@H](CO)NC(=O)[C@H](Cc2ccccc2)NC1=O` (cyclo(FSGYR)): the result in the assay listed under Rattus norvegicus [1] and in the assay filed under Rattus norvegicus [2] was Active.

Source of the values: ChEMBL document CHEMBL1149334, “Structure of a new cyclic nonapeptide, segetalin F, and vasorelaxant activity of segetalins from Vaccaria segetalis” (Bioorg Med Chem Lett, 2006).
